According to patent publication US20260184708A1, “PYRIDAZINONES AND METHODS OF USE THEREOF” (GFB (ABC), LLC, priority 2017, published 2026):

Target: T1, TRPC5 (Homo sapiens, UniProt Q9UL62)
T1 construct: expressed in transfected cells; host or cells: HEK 293
T1 sequence (Q9UL62 1-973): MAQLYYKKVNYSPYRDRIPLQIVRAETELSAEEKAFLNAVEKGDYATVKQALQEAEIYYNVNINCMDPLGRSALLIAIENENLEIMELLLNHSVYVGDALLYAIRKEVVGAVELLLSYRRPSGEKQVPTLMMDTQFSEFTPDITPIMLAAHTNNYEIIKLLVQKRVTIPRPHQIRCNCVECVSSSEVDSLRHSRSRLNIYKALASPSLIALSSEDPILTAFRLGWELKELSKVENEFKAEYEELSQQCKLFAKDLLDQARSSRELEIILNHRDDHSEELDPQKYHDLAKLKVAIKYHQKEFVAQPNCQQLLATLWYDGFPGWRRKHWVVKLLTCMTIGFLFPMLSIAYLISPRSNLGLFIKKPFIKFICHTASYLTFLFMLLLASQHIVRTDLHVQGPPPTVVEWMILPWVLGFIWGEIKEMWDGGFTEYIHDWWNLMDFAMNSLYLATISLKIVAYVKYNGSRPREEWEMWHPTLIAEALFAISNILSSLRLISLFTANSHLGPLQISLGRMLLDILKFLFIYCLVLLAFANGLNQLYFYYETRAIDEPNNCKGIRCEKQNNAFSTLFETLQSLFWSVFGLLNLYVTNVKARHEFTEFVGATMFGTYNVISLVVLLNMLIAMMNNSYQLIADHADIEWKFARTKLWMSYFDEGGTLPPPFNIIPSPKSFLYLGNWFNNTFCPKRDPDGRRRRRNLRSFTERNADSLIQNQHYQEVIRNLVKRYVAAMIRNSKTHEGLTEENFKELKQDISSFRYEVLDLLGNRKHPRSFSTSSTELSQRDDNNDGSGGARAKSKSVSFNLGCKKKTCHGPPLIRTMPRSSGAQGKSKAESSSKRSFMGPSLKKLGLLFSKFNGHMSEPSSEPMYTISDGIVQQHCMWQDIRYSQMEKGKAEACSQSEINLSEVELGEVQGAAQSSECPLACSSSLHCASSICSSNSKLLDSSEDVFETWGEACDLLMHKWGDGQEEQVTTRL
Test: TRPC5 automated electrophysiology (Syncropatch - Spatch format)
Format: cell-based
Details: Table 6; HEK293 cells overexpressing TRPC5
Method: The automated electrophysiological assay was carried out at room temperature. HEK-TRPC5 cells were cultured according to our standard operating procedures. Internal and external physiological solutions were freshly prepared prior to the assay. The free internal Ca2+ concentration was buffered to 1 μM according to the WCabuf software using 10 mMHEDTA. To monitor the ion currents, a voltage ramp from −100 mV to +80 mV, over 250 ms, was applied every 15 seconds, from a holding potential of −60 mV. To stabilize the inward and outward currents the voltage was kept steady at −100 mV and +80 mV for 20 ms. After recording for a minimum of 60 seconds control period, the activator (at 10, 15, 20 or 30 μM) was applied twice, before increasing concentrations of test compound (or vehicle) were applied to the cell. This was followed by a saturating concentration of the specific blocker ML 204 (100 μM). Graphs were plotted using the maximum outward current values obtained at +80 mV during the patch-clamp recordings. Data were normalized using the SyncroPatch384 equation Inorm=1−((Iconc−IFB)/(IRef−IFB)), where Iconc is the current amplitude at each concentration of agonist, IRef is the control current amplitude and IFB is the current in the presence of the saturating blocker ML204. Graphs were constrained between the maximum and minimum values. The series resistance (<15 MΩ) and quality of seals (>100 MΩ) were continuously monitored during the experiments. Data was analyzed using the Nanion Data Control384 software. EC/IC50 values were calculated using a least squares regression algorithm (Hill equation).

Row | IC50 [µM] | SMILES
1 | 10 to 500 | CC1c2nnn(Cc3ccccc3C(F)F)c2CCN1c1cn[nH]c(=O)c1Cl (centres unmarked) [drawing 923]
2 | 1e-05 to 1 | CC1c2nnn(Cc3ccccc3C(F)F)c2CCN1c1cn[nH]c(=O)c1Cl (centres unmarked) [drawing 924]
